Values after ≈ are worked out from the molar mass of the structure shown.
Assays:
Assay type in all cases: functional
[1] = tested on: Escherichia coli; test: Antibacterial activity against Escherichia coli by well diffusion method
[2] = tested on: Staphylococcus aureus; test: Antibacterial activity against Staphylococcus aureus by well diffusion method
[3] = tested on: Artemia salina; test: Insecticidal activity against Artemia salina; conditions: read-out: LD50 (the source's name)
[4] = tested on: Staphylococcus aureus; test: Antibacterial activity against Staphylococcus aureus assessed as inhibition zone at 100 ug/disc by well diffusion method; conditions: read-out: IZ

O=C(N[C@H](CO)[C@H](O)c1ccc([N+](=O)[O-])cc1)C(Cl)Cl [CHLORAMPHENICOL]
MIC [1]: 4 µg/mL (≈ 12.4 µM) | MIC [2]: 4 µg/mL (≈ 12.4 µM)

C=CC(C)(C)c1[nH]c2ccccc2c1/C=C1\NC(=O)[C@H](CO)NC1=O [CRISTATUMIN A]
MIC [1]: 64 µg/mL (≈ 189 µM)

C=CC(C)(C)c1[nH]c2c(CC=C(C)C)cc(CC=C(C)C)cc2c1C[C@@H]1NC(=O)[C@H](CO)NC1=O [CRISTATUMIN B]
LC50 [3]: 74.4 µg/mL (≈ 156 µM)

C=CC(C)(C)c1[nH]c2ccccc2c1/C=C(\NC(=O)C(N)=O)C(=O)OC [CRISTATUMIN D]
zone of inhibition at 100 µg/disc [4]: 8 mm

C=CC(C)(C)c1[nH]c2c(CC=C(C)C)cc(CC=C(C)C)cc2c1C[C@@H]1NC(=O)[C@H](C)NC1=O [ECHINULIN]
zone of inhibition at 100 µg/disc [4]: 8 mm

C=CC(C)(C)c1[nH]c2ccc(CC=C(C)C)cc2c1/C=C1\NC(=O)[C@H](C)NC1=O [ISOECHINULIN A]
LC50 [3]: 16.9 µg/mL (≈ 43.2 µM)

C=CC(C)(C)c1[nH]c2ccc(CC=C(C)C)cc2c1C[C@@H]1NC(=O)[C@H](C)NC1=O [TARDIOXOPIPERAZINE A]
MIC [2]: 8 µg/mL (≈ 20.3 µM)

C=CC(C)(C)c1[nH]c2c(CC=C(C)C)cccc2c1/C=C1\NC(=O)[C@H](C)NC1=O [VARIECOLORIN G]
LC50 [3]: 42.6 µg/mL (≈ 109 µM)
